Results taken from patent US9011945B2, “Composition and method for neuroprotection against excitotoxic injury” (priority 2008, dated 2015).
Structures can show the parent of a compound that is named as a salt.

How the values were obtained:
[1] = system: excitotoxic injury (NMDA injected into the left striatum); test: Locomotor activity test before and after intrastriatal NMDA excitotoxic injury (Example 1); type: in vivo; conditions: mice, oral gavage 2 days before intrastriatal NMDA; tested 24 hr after injury; n=8
Source text: Memantine hydrochloride (>98.5% white crystalline powder) was supplied by Lotus Pharmaceutical Co., Ltd. (Taipei, Taiwan). Tea polyphenols were isolated from Longjing green tea with the following composition: epigallocatechin, 14.69%; catechin, 1.13%; epigallocatechin-3-gallate, 41.34%; epicatechin, 5.47%; gallocatechin-3-gallate, 5.16%; epicatechin-3 gallate, 12.54%; coffein, 0.95%; and other catechin derivatives, 18% (Yeh C W, Chen W J, Chiang C T, Lin-Shiau S Y, Lin J K. 2003. Suppression of fatty acid synthase in MCF-7 breast cancer cells by tea and tea polyphenols: a possible mechanism for their hypolipidemic effects. Pharmacogenomics J 3: 267-276.). Memantine (10 mg/kg/day), tea polyphenol (60 mg/kg/day), or a combination (memantine 5 mg/kg/day plus tea polyphenol 30 mg/kg/day) was dissolved in distilled water and administered by oral gavage for 2 consecutive days before causing excitotoxic injury. The experimental design had 5 groups: the sham operation group, the control group, the memantine group, the tea polyphenol group, and the tea polyphenol plus memantine group.
Weight and rectal temperature of each mouse were recorded before the surgical procedure. Anesthesia was induced with 5% chloral hydrate (400 mg/kg). […] Throughout the experimental procedure, mouse rectal temperature was monitored and maintained at 37.0° C.±0.5° C. […]

[2] = system: Na+, K+-ATPase; test: Na+, K+-ATPase activity of synaptosomes after excitotoxic injury (Example 1); type: in vivo, mice; conditions: striatum synaptosomes 24 hr after excitotoxic injury
Procedure: (§1) Twenty-four hours after excitotoxic injury, mice were sacrificed by rapid decapitation under anesthesia. The lesioned (left) hemisphere was dissected into striatal and nonstriatal areas. The contralateral hemisphere was then dissected into the corresponding parts. Synaptosomes were prepared essentially as described previously (Andersen J M, Myhre O, Fonnum F. 2003. Discussion of the role of the extracellular signal-regulated kinase-phospholipase A2 pathway in production of reactive oxygen species in Alzheimer's disease. Neurochem Res 28: 319-326.). Briefly, different regions of the brain were removed and placed on ice. […]
(§2) ATPase activity was determined by measuring the amount of inorganic phosphate (Pi) released from the substrate ATP according to a previously described colorimetric method. The method permitted the quantification of Na^+, K^+-ATPase and Mg^2+-ATPase activity in the same sample. […] Optical density at 630 nm was determined by an ELISA reader (Dynatech MR-7000). The absorbance values obtained were converted to activity values by linear regression using a standard curve for sodium monobasic phosphate included in the assay at various concentrations. […] Protein concentration was determined colorimetrically with a commercial bicinchoninic acid kit (Pierce, Rockford, Ill.).

[3] = system: Mg2+-ATPase; test: Mg2+-ATPase activity of synaptosomes after excitotoxic injury (Example 1); type: in vivo, mice; conditions: striatum synaptosomes 24 hr after excitotoxic injury
Procedure: as §1, §2

[4] = system: synaptosomal reactive oxygen species; test: Synaptosomal reactive oxygen species formation, DCFH-DA (Example 1); type: in vivo, mice; conditions: mouse excitotoxic injury
Procedure: as §1, with “ice. Specimens with the same areas and treatment conditions were pooled (n=2) and subjected to homogenization on ice in 10 volumes of 0.32M sucrose. Homogenates were centrifuged at 4° C. for 10 min at 600 g.” for “ice.”
Dichlorofluorescein-diacetate (DCFH-DA), a nonfluorescent cell-permeable compound, diffuses passively across cell membranes. […] Plates were incubated with shaking at 37° C. for 30 min before measurement of fluorescence using a Microplate Fluorometer (Labsystems, Helsinki, Finland) with an excitation wavelength of 488 nm, an emission wavelength of 525 nm, and a band width of 5 nm. […] Synaptosomal protein concentration was determined with Pierce BCA reagents according to instructions provided. […]

[5] = system: mitochondrial membrane potential (ΔΨm); test: Mitochondrial membrane potential, DiOC6(3) (Example 1); type: in vivo, mice; conditions: striatum, 24 hr after excitotoxic injury; control group 85.06%±2.58%
Procedure: as §1
Mitochondrial membrane potential (ΔΨm) was measured using the fluorescent dye 3,3-diexyloxacarbocyanine iodide, DiOC6(3) (Chen Y C, Lin-Shiau S Y, Lin J K, 1998b. Involvement of reactive oxygen species and caspase 3 activation in arsenite-induced apoptosis. J Cell Physiol 177: 324-333.). Synaptosomes were prepared as described above and diluted 1:40 in Tris buffer, followed by the addition of DiOC6(3) to a final concentration of 1.5 M. After 20 min of incubation at 37° C., fluorescence was measured in a Microplate Fluorometer (Labsystems, Helsinki, Finland) with an excitation wavelength of 484 nm and an emission wavelength of 501 nm.

[6] = system: mitochondrial succinate reductase; test: Mitochondrial reductase activity, MTT test (Example 1); type: in vivo, mice; conditions: striatum, 24 hr after excitotoxic injury; control group 74.52%±4.86%
Procedure: Twenty-four hours after excitotoxic injury, mice were sacrificed by rapid decapitation under anesthesia. The lesioned (left) hemisphere was dissected into striatal and nonstriatal areas. The contralateral hemisphere was then dissected into the corresponding parts. Synaptosomes were prepared essentially as described previously (Andersen J M, Myhre O, Fonnum F. 2003. Discussion of the role of the extracellular signal-regulated kinase-phospholipase A2 pathway in production of reactive oxygen species in Alzheimer's disease. Neurochem Res 28: 319-326.). Briefly, different regions of the brain were removed and placed on ice. Specimens with the same areas and treatment conditions were pooled (n=2) and subjected to homogenization on ice in 10 volumes of 0.32M sucrose. Homogenates were centrifuged at 4° C. for 10 min at 600 g. The supernatant was then diluted 1:1 with 1.3M sucrose to obtain a suspension with a final sucrose concentration of 0.8M. This suspension was subjected to centrifugation at 20,000 g for 30 min at 4° C., yielding a myelin-rich supernatant and a pellet (P2) consisting of synaptosomes free of myelin. […]
Mitochondrial metabolic function was assessed by the conversion of the dye methylthiazoletetrazolium (MTT) to purple formazan. […] The formation of formazan was quantitated spectrophotometrically at 570 nm using a Microplate Reader.

[7] = system: intrasynaptosomal Ca2+ concentration; test: Intrasynaptosomal Ca2+ concentration, Fluo-3/AM (Example 1); type: in vivo, mice; conditions: striatum, 4 hr after excitotoxic injury; control group 145.62%±7.16%; n=10
Procedure: Intrasynaptosomal Ca^2+ concentration [Ca^2+]i was determined with the calcium-sensitive fluorochrome fluo-3-acetoxymethyl (Fluo-3/AM) in the presence of acetoxymethyl ester. First, 100 L of P2 synaptosomes was prepared as described above, and 2.5 mM Fluo-3/AM (Sigma, St. Louis, Mo.) was added to each well (final reaction volume of 250 L) and incubated at 37° C. for 30 min. Fluorescence was measured in a Microplate Fluorometer (Labsystems, Helsinki, Finland) with an excitation wavelength of 490 nm and an emission wavelength of 526 nm.

[8] = system: NMDA-induced seizures (icv NMDA); test: NMDA-induced seizure score (Example 2); type: in vivo, mice; conditions: pretreatment before icv 8 mM NMDA (3 μl); control vehicle 90±10%
Source text: In NMDA-treated mice, seizures developed through a sequence of paroxysmal scratching, hypermotility and aircling, tonic-clonic convulsions and, occasionally, death. The following semi-quantitative scale was used for the examination of excitotoxic severity: 0, no response; 1, excessive grooming plus paroxysmal scratching; 2, mild hypermotility; 3, extensive hypermotility and circling; 4, forepaw clonus plus tail hypertonus; 5, generalized tonic-clonic convulsions; 6, “status epilepticus” and death (Marganella et al. 2005. Comparative effects of levobupivacaine and racemic bupivacaine on excitotoxic neuronal death in culture and N-methyl-D-aspartate-induced seizures in mice. Eur. J. Pharmacol. 518: 111-115). The latency (in sec) for generalized (clonic or tonic-clonic convulsions) seizures was also determined.

[9] = system: NO levels; test: NO levels of brain synaptosomes (Example 2); type: in vivo, mice; conditions: FIG. 11E
[10] = system: NMDA-induced neurotoxicities; test: Elevated plus maze with icv NMDA (Example 2)
Procedure: In this example, the combination of TP with M (memantine) in three different dosage ratios of 6:1, 3:1, and 10:1 respectively; these are TPM6 (TP 30 mg/kg/day:M 5 mg/kg/day), TPM3 (TP 15 mg/kg/day:M 5 mg/kg/day) and TPM10 (TP 30 mg/kg/day:M 3 mg/kg/day), respectively. Their neuroprotective effects were evaluated after pretreatment for fourteen days or one day prior to the intracerebroventricular injection (icy) of 8 mM NMDA (3 μl).
For testing, mice were individually placed in the center of the maze facing a closed arm and allowed 5 min of free exploration. The number of entries into open arms, the number of entries into closed arms, and the total time spent in the open arms and total time spent in the closed arms were measured. Entry was defined as all four paws in the arms.

[11] = system: NMDA-decreased locomotor activities; test: Open field locomotor activity test with icv NMDA (Example 2)
Procedure: In this example, the combination of TP with M (memantine) in three different dosage ratios of 6:1, 3:1, and 10:1 respectively; these are TPM6 (TP 30 mg/kg/day:M 5 mg/kg/day), TPM3 (TP 15 mg/kg/day:M 5 mg/kg/day) and TPM10 (TP 30 mg/kg/day:M 3 mg/kg/day), respectively.
A large colorless rectangular box with a metallic grid floor was used (70-cm wide, 90-cm long and 60-cm high). The photobeam activity monitors (TruScan coulbourn instruments) was used for measuring real-time X-Y activity track-type plots. Overall pulses were measured in an electromechanical counter as a gross measure of activity and recorded by a PC. Each mouse was allowed to move freely for 5 min but data were not scored, and then the number of squares crossed and the plots of tracking were counted during a period of 30 min for all experiments and quantification of data was by TruScan99 software.

[12] = system: NMDA-induced neurotoxicities; test: Rotarod motor equilibrium performance with icv NMDA (Example 2)
Procedure: Their neuroprotective effects were evaluated after pretreatment for fourteen days or one day prior to the intracerebroventricular injection (icy) of 8 mM NMDA (3 μl).
One day before the experiment, mice were tested through ten consecutive sessions to stay on the rod and reach the cut off time of 180 s. One day after injection, mice were tested again. The retention time, defined as total time (sec) remaining on the rod, was recorded at each session.

In the case of `CC12CC3CC(C)(C1)CC(N)(C3)C2` [memantine, Memantine hydrochloride], the “improvement of impaired locomotor activity after excitotoxic injury” value [1] is reported as “substantial but nonsignificant improvement”, the “attenuation of decreased Na+, K+-ATPase activity” value [2] is reported as “only minimally attenuated” and the “attenuation of decreased Mg2+-ATPase activity” value [3] is reported as “only minimally attenuated”. For the same compound, the “effect on increased synaptosomal ROS production” value [4] was “does not have any significant effects”, the “mitochondrial membrane potential (ΔΨm)” value [5] was 94.23%±4.19% and the “mitochondrial reductase activity (MTT test)” value [6] was 93.53%±8.53%. The “intrasynaptosomal Ca2+ concentration [Ca2+]i” value [7] was 123.04%±6.70%, the “attenuations of NMDA-induced seizure scores in percentage” value [8] was 60±10% and the “NO levels of brain synaptosomes increased by NMDA” value [9] was “decreased”. The “attenuation of increased retention time in the opened plus maze by NMDA” value ([10]; drug one day before and consecutive 14 days following NMDA, FIG. 10C) was “followed in order by TPM6, TPM10 and then M”, the “retention time in the open field of elevated plus maze, drug alone” value ([10]; prolonged use alone, FIG. 8C) was “prominently increased retention time” and the “locomotor activities in the open field, drug alone” value ([11]; consecutive 14 days, before NMDA, FIG. 7) was “increased locomotor activities”. For the same compound, the “reversal of decreased locomotor activities induced by NMDA” value ([11]; drug one day before and consecutive 14 days following NMDA, FIG. 10A) was “partially reversed”, the “reversal of decrease in jump activity induced by NMDA” value ([11]; drug one day before and consecutive 14 days following NMDA, FIG. 10B) was “partially reversed” and the “order of neuroprotective potencies against NMDA-decreased locomotor activities” value ([11]; pretreatment 14 days, FIG. 8A) was “TPM10>TPM6>TPM3>M”. The “order of neuroprotective potencies against the decreased jump exploratory effect of NMDA” value ([11]; pretreatment 14 days, FIG. 8B) was “M>TPM6>TPM3>TPM10”, the “NMDA-decreased locomotor activities, prevention by pretreatment” value ([11]; pretreatment 14 days, icv 3 μl of 8 mM NMDA) was “prevented” and the “decrease in jump activity, drug alone” value ([11]; pretreatment alone for consecutive 14 days, FIG. 8B) was “TPM6>M>TPM10”. The “reversal of disturbance in rotarod motor equilibrium function induced by NMDA” value ([12]; drug one day before and consecutive 14 days following NMDA, FIG. 10D) was “reversed” and the “motor equilibrium function, drug alone” value ([12]; prolonged use alone, FIG. 8D) was “reduced the motor equilibrium function”.
